The assay has as its system P388 leukemia. In words: Survival of mice with P388 leukemia treated with methotrexate-fibrinogen conjugate. It is filed as in vivo. The conditions noted are these: dosage of methotrexate 40 mg/kg. The method, then:
Table of survival of mice with P388 leukemia treated with methotrexate-fibrinogen conjugate. Dosage of methotrexate 40 mg/kg.
S—number of mice with no leukemia detected on the 60th day of the experiment (mice considered cured) L—number of mice which died before the control ILS—ILS increase of life span Conjugates F-MTX were obtained in the reaction of fibrinogen glycation with fructose. Conjugates G-MTX were obtained in the reaction of fibrinogen glycation with glucose. Glycation was carried out according to the high temperature procedure.
Table, of survival of, mice with P388 leukemia treated with methotrexate fibrinogen conjugate. Dosage of methotrexate 40 mg/kg.

The values that follow come from US8623998B2, “Method of production of polyanionic drug-carrier conjugates” (priority 2008, dated 2014).

`CN(Cc1cnc2nc(N)nc(N)c2n1)c1ccc(C(=O)N[C@@H](CCC(=O)O)C(=O)O)cc1` [Methotrexat, methotrexate]: the “ILS (%) increase of life span” value is reported as 36%. The same compound came in with a Mean survival rate (experiment ended on 60th day) of 15.0.
